Calls of active or inactive are those of the source. No cut-off for these calls is given here. A value given as a limit tells only on which side of the number the result lay.

The results in this text go back to ChEMBL document CHEMBL4699404, “Arylsulfonyl histamine derivatives as powerful and selective alpha-glucosidase inhibitors” (RSC Med Chem, 2020).

For series [1], the system named is Saccharomyces cerevisiae. As to the kind of experiment: Inhibition of Saccharomyces cerevisiae alpha-glucosidase using p-nitrophenyl-alpha-o-D-glucopyranoside as substrate at 100 uM measured for 10 mins by microplate assay relative to control.
The nature of series [2]: Inhibition of porcine pancreatic alpha-amylase assessed as reduction in conversion of starch to glucose using starch as substrate at 200 uM incubated for 15 mins by starch-iodine method. The arrangement: species or system Sus scrofa. The conditions noted are these: pig, 0.25 h.
The nature of series [3]: Toxicity against C57BL/6 mouse assessed as locomotory changes at 22.5 mg/kg, po administered via gavage. In kind it is organism-based. The conditions noted are these: in vivo.
Series [4] addresses Acetylcholinesterase (Electrophorus electricus) (UniProt O42275). In words: Inhibition of electric eel AChE using acetylthiocholine iodide as substrate at 1.5 uM measured for 15 mins by Ellman's method relative to control.
For series [5], the system named is Saccharomyces cerevisiae. As to the kind of experiment: Potency index, ratio of acarbose Ki to test compound Ki for competitive inhibition of Saccharomyces cerevisiae alpha-glucosidase using varying levels of p-nitrophenyl-alpha-D-glucopyranoside as substrate by Lineweaver-Burk plot analysis.
Another series has as its system Kluyveromyces lactis. As to the kind of experiment: Inhibition of Kluyveromyces lactis beta-galactosidase using o-nitrophenyl-beta-o-D-galactopyranoside as substrate at 100 to 2500 uM measured for 10 mins. The following applies: dose microM 100-2500, time 10.0 min.
Series [6] in a line: Toxicity against C57BL/6 mouse assessed as changes in water consumption at 22.5 mg/kg, po administered via gavage measured for 24 hrs. The format is organism-based. The following applies: in vivo.
The test system of series [7] is Saccharomyces cerevisiae. In words: Inhibition of Saccharomyces cerevisiae alpha-glucosidase using p-nitrophenyl-alpha-o-D-glucopyranoside as substrate at 122 uM measured for 10 mins by microplate assay relative to control.
A short description of series [8]: Toxicity against C57BL/6 mouse assessed as behavioural changes at 22.5 mg/kg, po administered via gavage. The format is organism-based. The following applies: in vivo.
The target of series [9] is Xanthine dehydrogenase/oxidase (Bos taurus, UniProt P80457). In words: Inhibition of bovine milk xanthine oxidase assessed as reduction in uric acid formation at 3 uM using xanthine as substrate measured for 20 mins by microplate assay. The conditions noted are these: cattle.
Sequence of Xanthine dehydrogenase/oxidase (P80457 whole entry): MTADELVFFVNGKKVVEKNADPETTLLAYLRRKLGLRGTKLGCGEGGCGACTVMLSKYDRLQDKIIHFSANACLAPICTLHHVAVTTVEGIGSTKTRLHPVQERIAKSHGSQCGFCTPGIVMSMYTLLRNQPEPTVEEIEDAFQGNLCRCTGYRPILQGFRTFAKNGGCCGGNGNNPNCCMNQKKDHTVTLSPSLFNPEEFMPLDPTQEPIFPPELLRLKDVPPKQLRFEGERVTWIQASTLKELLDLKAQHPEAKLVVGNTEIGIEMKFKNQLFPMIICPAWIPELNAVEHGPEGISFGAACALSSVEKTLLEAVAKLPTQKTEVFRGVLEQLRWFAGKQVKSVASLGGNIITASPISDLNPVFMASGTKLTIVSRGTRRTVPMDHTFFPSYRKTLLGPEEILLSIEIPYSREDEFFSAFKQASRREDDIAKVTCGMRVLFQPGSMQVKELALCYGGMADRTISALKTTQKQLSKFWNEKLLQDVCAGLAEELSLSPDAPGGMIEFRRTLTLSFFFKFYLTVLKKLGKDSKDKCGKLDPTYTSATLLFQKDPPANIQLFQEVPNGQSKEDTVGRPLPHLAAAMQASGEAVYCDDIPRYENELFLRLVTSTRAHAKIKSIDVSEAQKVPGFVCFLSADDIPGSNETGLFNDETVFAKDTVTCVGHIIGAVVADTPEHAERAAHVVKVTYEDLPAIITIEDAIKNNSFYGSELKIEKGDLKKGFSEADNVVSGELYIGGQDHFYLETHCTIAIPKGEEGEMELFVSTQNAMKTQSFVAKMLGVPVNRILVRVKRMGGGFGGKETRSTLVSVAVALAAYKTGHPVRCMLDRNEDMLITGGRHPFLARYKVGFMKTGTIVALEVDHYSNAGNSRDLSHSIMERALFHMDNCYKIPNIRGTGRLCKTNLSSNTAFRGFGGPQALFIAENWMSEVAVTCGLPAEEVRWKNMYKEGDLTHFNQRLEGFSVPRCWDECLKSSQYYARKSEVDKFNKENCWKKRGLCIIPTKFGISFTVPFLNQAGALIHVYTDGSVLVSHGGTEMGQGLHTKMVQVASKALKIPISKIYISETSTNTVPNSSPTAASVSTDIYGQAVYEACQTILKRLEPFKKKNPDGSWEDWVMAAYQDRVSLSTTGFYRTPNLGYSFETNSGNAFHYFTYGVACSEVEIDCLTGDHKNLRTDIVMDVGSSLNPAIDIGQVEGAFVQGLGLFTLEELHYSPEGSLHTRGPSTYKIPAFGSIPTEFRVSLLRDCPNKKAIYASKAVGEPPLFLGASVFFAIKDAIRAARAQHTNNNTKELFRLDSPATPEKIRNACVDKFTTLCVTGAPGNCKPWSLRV
A short description of series [10]: Toxicity against C57BL/6 mouse assessed as changes in food consumption at 22.5 mg/kg, po administered via gavage measured for 24 hrs. The format is organism-based. The following applies: in vivo.
Series [11] relates to Mus musculus. As to the kind of experiment: Hypoglycemic activity in C57BL/6 mouse assessed as reduction in postprandial blood glucose level at 22.5 mg/kg, po administered via gavage measured after 15 to 90 mins by glucometric analysis. The format is functional, organism-based. The conditions noted are these: time min 15-90.
For series [12], the system named is Mus musculus. As to the kind of experiment: Hypoglycemic activity in C57BL/6 mouse assessed as reduction in sucrose-induced postprandial blood glucose level at 22.5 mg/kg, po administered via gavage and measured after 15 to 90 mins by oral sucrose loading test. The format is functional, organism-based. The following applies: time min 15-90.
Series [13] deals with Saccharomyces cerevisiae. As to the kind of experiment: Reversible inhibition of Saccharomyces cerevisiae alpha-glucosidase assessed as recovery of enzyme activity preincubated with enzyme for 30 mins followed by 100-fold dilution and challenge with substrate by jump dilution experiment based microplate assay. More on the design: scale not given: the % may be the effect or the level left.

Series [14] is described as follows: Toxicity against C57BL/6 mouse assessed as general body position changes at 22.5 mg/kg, po administered via gavage. The format is organism-based. The conditions noted are these: in vivo.
For series [15], the target named is Mushroom tyrosinase (Agaricus bisporus) (UniProt O42713+Q00024+C7FF04+C7FF05). In words: Inhibition of mushroom tyrosinase assessed as reduction in dopachrome formation at 40 uM using L-tyrosine as substrate measured for 30 mins by microplate assay.
For the next series, the system named is Prunus dulcis. In words: Inhibition of almonds beta-glucosidase using p-nitrophenyl-beta-o-D-glucopyranoside as substrate at 65 uM measured for 10 mins.
Series [16] is described as follows: Inhibition of almonds beta-glucosidase using p-nitrophenyl-beta-o-D-glucopyranoside as substrate measured for 10 mins. More on the design: species or system Prunus dulcis.
The nature of series [17]: Inhibition of Kluyveromyces lactis beta-galactosidase using o-nitrophenyl-beta-o-D-galactopyranoside as substrate measured for 10 mins.

Sequence of Acetylcholinesterase (Electrophorus electricus) (O42275 24-633 limits assumed): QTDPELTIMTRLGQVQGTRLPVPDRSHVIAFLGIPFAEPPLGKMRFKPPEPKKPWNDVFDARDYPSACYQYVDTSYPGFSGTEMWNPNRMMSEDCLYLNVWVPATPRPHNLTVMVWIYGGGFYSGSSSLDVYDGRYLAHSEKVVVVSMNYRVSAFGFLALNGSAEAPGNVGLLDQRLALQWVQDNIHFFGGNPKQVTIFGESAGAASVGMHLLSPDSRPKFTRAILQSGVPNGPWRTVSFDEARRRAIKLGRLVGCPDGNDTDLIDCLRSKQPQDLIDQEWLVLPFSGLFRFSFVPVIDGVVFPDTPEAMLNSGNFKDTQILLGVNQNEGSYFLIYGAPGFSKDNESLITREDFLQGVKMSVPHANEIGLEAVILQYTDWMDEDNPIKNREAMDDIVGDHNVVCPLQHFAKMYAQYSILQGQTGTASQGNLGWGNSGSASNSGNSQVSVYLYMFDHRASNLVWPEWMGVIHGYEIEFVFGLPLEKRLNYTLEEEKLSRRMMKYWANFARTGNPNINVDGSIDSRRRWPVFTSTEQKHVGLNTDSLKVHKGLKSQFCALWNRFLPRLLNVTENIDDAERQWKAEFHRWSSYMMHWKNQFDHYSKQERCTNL

`O=S(=O)(NCCc1c[nH]cn1)c1ccc(F)cc1` had an inhibition with Saccharomyces cerevisiae [1] of less than 50%.
In the series on Saccharomyces cerevisiae [1], `Cc1ccc(S(=O)(=O)NCCc2cn(S(=O)(=O)c3ccc(C)cc3)cn2)cc1` displayed an inhibition of more than 50%.
The same measure, in the same setting: as for `O=S(=O)(NCCc1cn(S(=O)(=O)c2ccccc2)cn1)c1ccccc1`, the figure is more than 50%.
`COc1ccc(S(=O)(=O)NCCc2cn(S(=O)(=O)c3ccc(OC)c(F)c3)cn2)cc1F` yielded an inhibition in the series on Saccharomyces cerevisiae [1] of more than 50%.
With `O=S(=O)(NCCc1c[nH]cn1)c1cc(F)c(F)c(F)c1`, the inhibition in the series on Saccharomyces cerevisiae [1] was less than 50%.
On to `O=S(=O)(NCCc1cn(S(=O)(=O)c2ccc(C(F)(F)F)cc2)cn1)c1ccc(C(F)(F)F)cc1`, for which the “inhibition (INH)” value in [2] and in [9] was “Not Active” throughout. The Activity result in [3] is “Non-Toxic”; in series [6], “Non-Toxic”; in series [8] it was “Non-Toxic”; in [10], “Non-Toxic”; in the series with Saccharomyces cerevisiae [13], 97%; in [14], “Non-Toxic”. In addition, the inhibition is 2.31% in series [4], 79.9% in the series with Saccharomyces cerevisiae [7] and more than 50% in the series on Saccharomyces cerevisiae [1]. Moreover, the Ratio Ki with Saccharomyces cerevisiae [5] is 7. Besides, the inhibition result (in the series on Kluyveromyces lactis; in series [15]; in the series on Prunus dulcis) was “inactive” in each case. For the same molecule, the outcome with Mus musculus [11] and in the series with Mus musculus [12] was Active.
`O=S(=O)(NCCc1c[nH]cn1)c1ccc(F)cc1C(F)(F)F`: in the series with Saccharomyces cerevisiae [1], the inhibition was less than 50%.
The same measure, in the same setting: as for `O=S(=O)(NCCc1cn(S(=O)(=O)c2ccc(F)cc2C(F)(F)F)cn1)c1ccc(F)cc1C(F)(F)F`, the figure is more than 50%; as for `O=S(=O)(NCCc1cn(S(=O)(=O)c2ccc(F)cc2)cn1)c1ccc(F)cc1`, more than 50%.
The same measure, in the same setting: the figure for `O=S(=O)(NCCc1cn(S(=O)(=O)c2cc(F)c(F)c(F)c2)cn1)c1cc(F)c(F)c(F)c1` is more than 50%.
On the same count and under the same terms, as for `O=S(=O)(NCCc1c[nH]cn1)c1ccccc1`, the figure is less than 50%; as for `Cc1ccc(F)c(S(=O)(=O)NCCc2c[nH]cn2)c1`, less than 50%.
In the case of `Cc1ccc(F)c(S(=O)(=O)NCCc2cn(S(=O)(=O)c3cc(C)ccc3F)cn2)c1`, the “inhibition (INH)” value in series [2] and in [9] was “Not Active” throughout. For the same molecule, the inhibition in series [4] is 7.14%; in the series on Saccharomyces cerevisiae [7] it was 72.2%; in the series on Saccharomyces cerevisiae [1] it was more than 50%. Also, the inhibition result (in the series on Kluyveromyces lactis; in series [15]; with Prunus dulcis) was “inactive” throughout.
The molecule `COc1ccc(S(=O)(=O)NCCc2c[nH]cn2)cc1F` showed an inhibition in the series on Saccharomyces cerevisiae [1] of less than 50%.
The same measure, in the same setting: the figure for `Cc1ccc(S(=O)(=O)NCCc2c[nH]cn2)cc1` is less than 50%.
Molecule `OC[C@H]1NC[C@H](O)[C@@H](O)[C@@H]1O` [DUVOGLUSTAT] gave a half-maximal inhibitory concentration (IC50) in [16] of 65.2 µM.
Regarding `O=S(=O)(NCCc1cn(S(=O)(=O)c2ccc(F)cc2Cl)cn1)c1ccc(F)cc1Cl`, in the series on Saccharomyces cerevisiae [1], the inhibition was more than 50%.
As to `OC[C@H]1NC[C@H](O)[C@@H](O)[C@H]1O`, the IC50 in series [17] is 90 µM.
On to `O=S(=O)(NCCc1cn(S(=O)(=O)c2c(F)c(F)c(F)c(F)c2F)cn1)c1c(F)c(F)c(F)c(F)c1F`, for which the inhibition in the series with Saccharomyces cerevisiae [1] was more than 50%.
The same measure, in the same setting: the figure for `O=S(=O)(NCCc1c[nH]cn1)c1ccc(C(F)(F)F)cc1` is less than 50%.
